In patent publication US20090018134A1, “Compounds - 945” (AstraZeneca AB, priority 2007, published 2009) one finds IC50 data, which are given here for 27 compounds.

T1 sequence (P42345 1362-2549): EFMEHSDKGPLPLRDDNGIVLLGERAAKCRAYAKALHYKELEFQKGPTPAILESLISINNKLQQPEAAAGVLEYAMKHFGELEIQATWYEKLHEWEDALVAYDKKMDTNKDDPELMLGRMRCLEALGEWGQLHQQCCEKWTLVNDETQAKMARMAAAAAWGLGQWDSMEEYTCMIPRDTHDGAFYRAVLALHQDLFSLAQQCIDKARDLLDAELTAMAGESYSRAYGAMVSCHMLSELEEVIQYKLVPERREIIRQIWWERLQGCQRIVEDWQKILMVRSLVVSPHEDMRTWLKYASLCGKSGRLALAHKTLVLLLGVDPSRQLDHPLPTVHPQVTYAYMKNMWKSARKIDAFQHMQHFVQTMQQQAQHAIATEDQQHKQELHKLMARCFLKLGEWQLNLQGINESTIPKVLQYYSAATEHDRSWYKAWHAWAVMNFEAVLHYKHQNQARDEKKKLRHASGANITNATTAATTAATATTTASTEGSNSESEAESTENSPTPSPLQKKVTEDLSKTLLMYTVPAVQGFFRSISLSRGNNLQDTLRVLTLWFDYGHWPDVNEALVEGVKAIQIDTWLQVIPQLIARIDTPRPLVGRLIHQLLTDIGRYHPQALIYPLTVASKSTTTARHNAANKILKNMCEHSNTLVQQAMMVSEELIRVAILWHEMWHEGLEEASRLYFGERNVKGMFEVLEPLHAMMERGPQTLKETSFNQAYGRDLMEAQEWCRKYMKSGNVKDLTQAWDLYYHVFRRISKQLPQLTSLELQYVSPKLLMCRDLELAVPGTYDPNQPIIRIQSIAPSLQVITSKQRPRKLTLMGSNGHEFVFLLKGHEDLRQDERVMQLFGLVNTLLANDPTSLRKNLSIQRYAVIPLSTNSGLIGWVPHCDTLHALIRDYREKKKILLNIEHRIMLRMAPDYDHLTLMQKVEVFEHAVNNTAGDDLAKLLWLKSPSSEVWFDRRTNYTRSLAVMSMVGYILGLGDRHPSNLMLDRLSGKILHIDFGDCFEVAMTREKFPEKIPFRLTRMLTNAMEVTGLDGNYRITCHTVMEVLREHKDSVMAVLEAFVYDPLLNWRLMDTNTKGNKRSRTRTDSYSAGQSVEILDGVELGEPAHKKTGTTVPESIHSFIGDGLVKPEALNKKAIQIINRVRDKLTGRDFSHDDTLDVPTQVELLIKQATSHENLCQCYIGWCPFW

This assay addresses T1, mTOR (Homo sapiens, UniProt P42345).
T1 construct: FLAG; made in house
The experiment in a line: In Vitro mTOR Kinase Assay (Echo), Test (a)(ii). Type of assay: biochemical. The conditions noted are these: table of enzyme assay Test (a)(ii); read-out: Test (a)(ii) IC50. Summed up:
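Inhibition of truncated mTOR (1362-2549, FLAG-tagged, purified from stably transfected HEK293 cells) is measured as reduced AlphaScreen signal from a phospho-T389-recognising antibody bound to the biotinylated peptide product. Kinase incubation lasts 2 hours at room temperature. Potency is given as IC50.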
Broadly, the IC50 is the midpoint of a concentration-inhibition curve. In the case of `C[C@H]1COCCN1c1cc(C2(S(=O)(=O)CCCO)CC2)nc(-c2ccc(NC(=O)NCCF)cc2)n1` [Example 64aj, 3-(2-fluoroethyl)-1-[4-[4-[1-(3-hydroxypropylsulfonyl)cyclopro-pyl]-6-[(3S)-3-methylmorpholin-4-yl]pyrimidin-2-yl]phenyl]urea], the IC50 stood at 7.78 nM. The value for `C[C@H]1COCCN1c1cc(C2(S(=O)(=O)CCCO)CC2)nc(-c2ccc(NC(=O)Nc3ccon3)cc2)n1` [Example 64ak, 1-[4-[4-[1-(3-hydroxypropylsulfonyl)cyclopro-pyl]-6-[(3S)-3-methylmorpholin-4-yl]pyrimidin-2-yl]phenyl]-3-(1,2-oxazol-3-yl)urea] was 1.61 nM; that for `C[C@H]1COCCN1c1cc(C2(S(=O)(=O)c3cnn(C(F)F)c3)CC2)nc(-c2ccc(NC(=O)NCCO)cc2)n1` [Example 64al, 1-[4-[4-[1-[1-(difluoromethyl)pyrazol-4-yl]sulfonylcyclopropyl]-6-[(3S)-3-methylmorpholin-4-yl]pyrimidin-2-yl]phenyl]-3-(2-hydroxyethyl)urea] was 5.58 nM; that for `CCNC(=O)Nc1ccc(-c2nc(N3CCOC[C@@H]3C)cc(C3(S(=O)(=O)c4ccc(OC(F)F)cc4)CC3)n2)cc1` [Example 64b, 3-[4-[4-[1-[4-(difluoromethoxy)phenyl]sulfonyl-cyclopropyl]-6-[(3S)-3-methylmorpholin-4-yl]pyrimidin-2-yl]phenyl]-1-ethylurea] was 6.78 nM.

For the compound `C[C@H]1COCCN1c1cc(C2(S(=O)(=O)c3ccc(OC(F)F)cc3)CC2)nc(-c2ccc(NC(=O)NCCO)cc2)n1` [Example 64c, 1-[4-[4-[1-[4-(difluoromethoxy)phenyl]sulfonyl-cyclopropyl]-6-[(3S)-3-methylmorpholin-4-yl]pyrimidin-2-yl]phenyl]-3-(2-hydroxyethyl)urea], the half-inhibitory concentration (IC50) turned out to be 2.15 nM. Under `C[C@H]1COCCN1c1cc(C2(S(=O)(=O)c3ccc(OC(F)F)cc3)CC2)nc(-c2ccc(NC(=O)Nc3cnn(C)c3)cc2)n1` [Example 64d, 1-[4-[4-[1-[4-(difluoromethoxy)phenyl]sulfonyl-cyclopropyl]-6-[(3S)-3-methylmorpholin-4-yl]pyrimidin-2-yl]phenyl]-3-(1-methylpyrazol-4-yl)urea] stands 6.7 nM; under `C[C@H]1COCCN1c1cc(C2(S(=O)(=O)c3ccc(OC(F)F)cc3)CC2)nc(-c2ccc(NC(=O)NCCF)cc2)n1` [Example 64e, 1-[4-[4-[1-[4-(difluoromethoxy)phenyl]sulfonyl-cyclopropyl]-6-[(3S)-3-methylmorpholin-4-yl]pyrimidin-2-yl]phenyl]-3-(2-fluoroethyl)urea], 5.37 nM; under `C[C@H]1COCCN1c1cc(C2(S(=O)(=O)c3ccc(OC(F)F)cc3)CC2)nc(-c2ccc(NC(=O)NCC(F)F)cc2)n1` [Example 64f, 3-(2,2-difluoroethyl)-1-[4-[4-[1-[4-(difluoromethoxy)phenyl]sulfonyl-cyclopropyl]-6-[(3S)-3-methylmorpholin-4-yl]pyrimidin-2-yl]phenyl]urea], 5.21 nM. As to `CNC(=O)Nc1ccc(-c2nc(N3CCOC[C@@H]3C)cc(C3(S(=O)(=O)c4ccc(F)c(F)c4)CC3)n2)cc1` [Example 64g, 1-[4-[4-[1-(3,4-difluorophenyl)sulfonylcyclopro-pyl]-6-[(3S)-3-methylmorpholin-4-yl]pyrimidin-2-yl]phenyl]-3-methylurea], the IC50 was 34.2 nM. Under `CCNC(=O)Nc1ccc(-c2nc(N3CCOC[C@@H]3C)cc(C3(S(=O)(=O)c4ccc(F)c(F)c4)CC3)n2)cc1` [Example 64h, 3-[4-[4-[1-(3,4-difluorophenyl)sulfonylcyclopro-pyl]-6-[(3S)-3-methylmorpholin-4-yl]pyrimidin-2-yl]phenyl]-1-ethylurea] stands 1.48 nM. The value for `C[C@H]1COCCN1c1cc(C2(S(=O)(=O)c3ccc(F)c(F)c3)CC2)nc(-c2ccc(NC(=O)NC3CC3)cc2)n1` [Example 64i, 3-cyclopropyl-1-[4-[4-[1-(3,4-difluorophenyl)sulfonylcyclopro-pyl]-6-[(3S)-3-methylmorpholin-4-yl]pyrimidin-2-yl]phenyl]urea] was 1.35 nM; that for `C[C@H]1COCCN1c1cc(C2(S(=O)(=O)c3ccc(F)c(F)c3)CC2)nc(-c2ccc(NC(=O)NCCO)cc2)n1` [Example 64j, 1-[4-[4-[1-(3,4-difluorophenyl)sulfonylcyclopro-pyl]-6-[(3S)-3-methylmorpholin-4-yl]pyrimidin-2-yl]phenyl]-3-(2-hydroxyethyl)urea] was 1.2 nM. The value for `C[C@H]1COCCN1c1cc(C2(S(=O)(=O)c3ccc(F)c(F)c3)CC2)nc(-c2ccc(NC(=O)Nc3cnn(C)c3)cc2)n1` [Example 64k, 1-[4-[4-[1-(3,4-difluorophenyl)sulfonylcyclopro-pyl]-6-[(3S)-3-methylmorpholin-4-yl]pyrimidin-2-yl]phenyl]-3-(1-methylpyrazol-4-yl)urea] was 1.44 nM.

Take `C[C@H]1COCCN1c1cc(C2(S(=O)(=O)c3ccc(F)c(F)c3)CC2)nc(-c2ccc(NC(=O)NCCF)cc2)n1` [Example 64l, 1-[4-[4-[1-(3,4-difluorophenyl)sulfonylcyclopro-pyl]-6-[(3S)-3-methylmorpholin-4-yl]pyrimidin-2-yl]phenyl]-3-(2-fluoroethyl)urea]: the IC50 came out at 1.11 nM. Under `C[C@H]1COCCN1c1cc(C2(S(=O)(=O)c3ccc(F)c(F)c3)CC2)nc(-c2ccc(NC(=O)NCC(F)F)cc2)n1` [Example 64m, 3-(2,2-difluoroethyl)-1-[4-[4-[1-(3,4-difluorophenyl)sulfonylcyclo-propyl]-6-[(3S)-3-methylmorpholin-4-yl]pyrimidin-2-yl]phenyl]urea] stands 40.8 nM.

As to `C[C@H]1COCCN1c1cc(C2(S(=O)(=O)c3ccc(NCCO)c(F)c3)CC2)nc(-c2ccc(NC(=O)NCCO)cc2)n1` [Example 64n, 1-[4-[4-[1-[3-fluoro-4-(2-hydroxyethylamino)phenyl]sulfon-ylcyclopropyl]-6-[(3S)-3-methylmorpholin-4-yl]pyrimidin-2-yl]phenyl]-3-(2-hydroxyethyl)urea], the IC50 amounted to 16.1 nM.

Consider `C[C@H]1COCCN1c1cc(C2(S(=O)(=O)c3ccccc3)CCC2)nc(-c2ccc(NC(=O)NC(C)(C)CO)cc2)n1` [Example 64o, 1-[4-[4-[1-(benzenesulfonyl)cyclobutyl]-6-[(3S)-3-methylmorpholin-4-yl]pyrimidin-2-yl]phenyl]-3-(1-hydroxy-2-methylpropan-2-yl)urea], for which the IC50 amounted to 3.45 nM. The value for `C[C@@H](CO)NC(=O)Nc1ccc(-c2nc(N3CCOC[C@@H]3C)cc(C3(S(=O)(=O)c4ccccc4)CCC3)n2)cc1` [Example 64p, 1-[4-[4-[1-(benzenesulfonyl)cyclobutyl]-6-[(3S)-3-methylmorpholin-4-yl]pyrimidin-2-yl]phenyl]-3-[(2S)-1-hydroxypropan-2-yl]urea] was 3.98 nM. On to `C[C@H](CO)NC(=O)Nc1ccc(-c2nc(N3CCOC[C@@H]3C)cc(C3(S(=O)(=O)c4ccccc4)CCC3)n2)cc1` [Example 64q, 1-[4-[4-[1-(benzenesulfonyl)cyclobutyl]-6-[(3S)-3-methylmorpholin-4-yl]pyrimidin-2-yl]phenyl]-3-[(2R)-1-hydroxypropan-2-yl]urea], for which the IC50 amounted to 4.67 nM.

`C[C@H]1COCCN1c1cc(C2(S(=O)(=O)c3ccccc3)CCC2)nc(-c2ccc(NC(=O)NCCCO)cc2)n1` [Example 64r, 1-[4-[4-[1-(benzenesulfonyl)cyclobutyl]-6-[(3S)-3-methylmorpholin-4-yl]pyrimidin-2-yl]phenyl]-3-(3-hydroxypropyl)urea]: the IC50 was determined as 4.18 nM. With `C[C@H]1COCCN1c1cc(C2(S(=O)(=O)c3ccccc3)CCC2)nc(-c2ccc(NC(=O)NCCF)cc2)n1` [Example 64s, 1-[4-[4-[1-(benzenesulfonyl)cyclobutyl]-6-[(3S)-3-methylmorpholin-4-yl]pyrimidin-2-yl]phenyl]-3-(2-fluoroethyl)urea], the IC50 was found to be 2.96 nM.

With `C[C@H]1COCCN1c1cc(C2(S(=O)(=O)C3CC3)CC2)nc(-c2ccc(NC(=O)NCCF)cc2)n1` [Example 64t, 1-[4-[4-(1-cyclopropylsulfonylcyclopropyl)-6-[(3S)-3-methylmorpholin-4-yl]pyrimidin-2-yl]phenyl]-3-(2-fluoroethyl)urea], the IC50 came out at 11.4 nM. The value for `C[C@H]1COCCN1c1cc(C2(S(=O)(=O)C3CC3)CC2)nc(-c2ccc(NC(=O)NCC(F)F)cc2)n1` [Example 64u, 1-[4-[4-(1-cyclopropylsulfonylcyclopropyl)-6-[(3S)-3-methylmorpholin-4-yl]pyrimidin-2-yl]phenyl]-3-(2,2-difluoroethyl)urea] was 13.9 nM; that for `C[C@H]1COCCN1c1cc(C2(S(=O)(=O)C3CC3)CC2)nc(-c2ccc(NC(=O)NCc3ncc[nH]3)cc2)n1` [Example 64v, 1-[4-[4-(1-cyclopropylsulfonylcyclopropyl)-6-[(3S)-3-methylmorpholin-4-yl]pyrimidin-2-yl]phenyl]-3-(1H-imidazol-2-ylmethyl)urea] was 146 nM. Regarding `C[C@H]1COCCN1c1cc(C2(S(=O)(=O)C3CC3)CCC2)nc(-c2ccc(NC(=O)NC(C)(C)CO)cc2)n1` [Example 64w, 1-[4-[4-(1-cyclopropylsulfonylcyclobutyl)-6-[(3S)-3-methylmorpholin-4-yl]pyrimidin-2-yl]phenyl]-3-(1-hydroxy-2-methylpropan-2-yl)urea], the IC50 was determined as 16.1 nM.

In the case of `C[C@@H](CO)NC(=O)Nc1ccc(-c2nc(N3CCOC[C@@H]3C)cc(C3(S(=O)(=O)C4CC4)CCC3)n2)cc1` [Example 64x, 1-[4-[4-(1-cyclopropylsulfonylcyclobutyl)-6-[(3S)-3-methylmorpholin-4-yl]pyrimidin-2-yl]phenyl]-3-[(2S)-1-hydroxypropan-2-yl]urea], the IC50 is 7.61 nM. The value for `C[C@H](CO)NC(=O)Nc1ccc(-c2nc(N3CCOC[C@@H]3C)cc(C3(S(=O)(=O)C4CC4)CCC3)n2)cc1` [Example 64y, 1-[4-[4-(1-cyclopropylsulfonylcyclobutyl)-6-[(3S)-3-methylmorpholin-4-yl]pyrimidin-2-yl]phenyl]-3-[(2R)-1-hydroxypropan-2-yl]urea] was 12.5 nM.
